Measured values published in patent US12084472B2 (Ardelyx, Inc., priority 2015, dated 2024).
Marks after values point to notes of the source that are not given here.

What was measured:
[1] = tested on: Western diet (WD)-fed mice; assay: Mouse model of NAFLD and mild diabetes, Western diet (WD)-fed mice: glucose, insulin, liver lipids, GLP levels; format: in vivo, C57BL/6 male mice
Description: Seven week old C57BL/6 male mice were housed 5/cage. Two cages of mice were put on normal chow (Harlan Teklad 2018), and the remaining cages of mice were put on WD (Harlan Teklad, TD.88137, […]/0.2% cholesterol) to induce NAFLD. After 10 weeks, mice were weighed and fasted for 4 h. Blood was collected to measure fasting glucose levels, processed to plasma for measurement of insulin, triglycerides and total cholesterol. This process was repeated on Day 29 of treatment. Based on body weight and fasted glucose and insulin levels, mice were divided into 5 treatment groups (n=10/group), Table 20. […] Mice were weighed twice weekly throughout the study. On the last day of the study (Day 30, 8 hours after food removal), mice were euthanized. Blood was collected in tubes with inhibitors to block DPP-4 activity and processed to plasma for measurement of liver enzymes and GLP levels using an Ace Alera clinical analyzer and the Multi-Array Assay System from Meso Scale Discovery, respectively. The entire liver was collected, weighed, and a sample was taken and weighed for measurement of triglycerides and total cholesterol.
Data for each group are presented as mean±SEM. Statistical analyses were performed using one-way ANOVA followed by Holm-Sidak's multiple comparisons test. For GLP levels, <statistical significance compared to vehicle (WD) is marked as *, P<0.05; **, P<0.01, ***, P<0.001, and ****, P<0.0001; of linagliptin (WD) versus I-389 alone (WD) or linaglptin+I-389 (WD) is marked as †, P<0.05; ††, P<0.01, of †††, P<0.001, and ††††, P<0.0001; and of I-389 (WD) versus linagliptin (WD)+I-389 (WD) is marked as ^, P<0.05; ^ ^P<0.01, ^ ^^P, P<0.001, and ^ ^^^, P<0.0001. For the remaining parameters, statistical significance compared to vehicle (WD) is marked as *, P<0.05; **, P<0.01, ***, P<0.001, and ****, P<0.0001.

small intestine transit = assay: Intestinal motility independent of gastric emptying (carmine red dye front); format: in vivo, C57BL/6 male mice; conditions: I-389 30 mg/kg PO; dye infused via duodenal catheter 1 h later; 15 min; vs vehicle; FIG. 6
Description: Seven-eight week old C57BL/6 male mice were acclimated for four days. Mice were then divided into 2 groups and fasted for 2-1/2 h, followed by a PO dose (10 mL/kg) of vehicle (10% 2-hydroxypropyl-β-cyclodextrin [HPCD] in 10 mM PBS containing 0.1% tween 80; HPCD/tween 80) or I-389 30 mg/kg. One hour later, carmine red (6% in sterile water; 100 μL/mouse) dye was infused via the duodenal catheter and mice were euthanised fifteen min after that. The entire length of the small intestine and the distance from the stomach to the dye front in the small intestine was measured and used to calculate the percentage of the small intestine the dye front had travelled during the 15 min timeframe.

human TGR5 = biological target: T1, human TGR5 (Homo sapiens, UniProt Q8TDU6); assay: Cell-based TGR5 assay (cAMP generation, HTRF); conditions: HEK293 cells stably transfected with human TGR5; cAMP by HTRF; 30 minutes at 37° C.; read-out: pEC50 Human TGR5 (converted)
T1 construct: expressed in transfected cells; host or cells: HEK293
T1 sequence (Q8TDU6 1-330): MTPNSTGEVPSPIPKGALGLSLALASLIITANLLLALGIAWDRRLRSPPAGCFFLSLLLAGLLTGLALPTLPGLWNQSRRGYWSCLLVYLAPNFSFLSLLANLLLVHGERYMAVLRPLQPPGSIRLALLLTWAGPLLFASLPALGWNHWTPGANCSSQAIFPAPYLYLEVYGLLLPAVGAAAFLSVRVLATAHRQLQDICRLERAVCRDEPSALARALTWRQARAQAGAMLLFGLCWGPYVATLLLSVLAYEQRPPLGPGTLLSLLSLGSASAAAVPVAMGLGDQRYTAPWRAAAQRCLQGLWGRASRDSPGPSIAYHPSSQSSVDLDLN
Summary of the method: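 First, compounds in 3-fold serial dilution were placed in HBSS with 10 mM HEPES pH 7.4 and 0.5 mM IBMX. Next, human TGR5-expressing HEK293 cells were added and incubated 30 min at 37° C. Finally, cAMP was detected by HTRF and pEC50 derived by logistic fitting.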

EC50 (human TGR5): < 100 nM
SMILES: CN(CCCCNC(=O)N[C@@H](CO)[C@@H](O)[C@H](O)[C@H](O)CO)S(=O)(=O)c1ccc(Cl)c(COC2(c3cnccc3-c3ccccc3OC3CC3)CC2)c1 [Compound I-389, 1-(4-[N-methyl[4-chloro-3-([1-[4-(2-cyclopropoxyphenyl)pyridin-3-yl]cyclopropoxy]methyl)benzene]sulfonamido]butyl)-3-[(2S,3R,4S,5R)-1,3,4,5,6-pentahydroxyhexan-2-yl]urea]
active GLP-1 levels / release ([1]; WD-fed mice, Day 30 plasma, I-389 30 mg/kg, linagliptin 10 mg/kg, FIG. 14): effective at inducing active GLP-1 release
total GLP-1 levels ([1]; WD-fed mice, Day 30 plasma, I-389 30 mg/kg, linagliptin 10 mg/kg, FIG. 15): highly elevated
body weight ([1]; WD-fed mice, data not shown): did not significantly affect
liver total cholesterol levels (in words) ([1]; WD-fed mice, vs vehicle (WD)): lowered
liver triglycerides (in words) ([1]; WD-fed mice, vs vehicle (WD)): lowered
Liver weight ([1]; Western diet, liraglutide 0.4 mg/kg BID SQ, I-389 30 mg/kg BID PO, linagliptin 10 mg/kg QD PO, mean±SEM, vehicle WD 2.13 ± 0.14): 1.77 ± 0.09* g
4-h fasted insulin ([1]; Western diet, liraglutide 0.4 mg/kg BID SQ, I-389 30 mg/kg BID PO, linagliptin 10 mg/kg QD PO, mean±SEM, vehicle WD 2.3 ± 0.3): 1.6 ± 0.2* ng/mL
Hepatic cholesterol ([1]; Western diet, liraglutide 0.4 mg/kg BID SQ, I-389 30 mg/kg BID PO, linagliptin 10 mg/kg QD PO, mean±SEM, vehicle WD 8.56 ± 0.25): 7.24 ± 0.41** mg/g
Hepatic triglycerides ([1]; Western diet, liraglutide 0.4 mg/kg BID SQ, I-389 30 mg/kg BID PO, linagliptin 10 mg/kg QD PO, mean±SEM, vehicle WD 145.40 ± 14.80): 87.82 ± 13.77*** mg/g
4-h fasted glucose ([1]; Western diet, liraglutide 0.4 mg/kg BID SQ, I-389 30 mg/kg BID PO, linagliptin 10 mg/kg QD PO, mean±SEM, vehicle WD 239 ± 13): 178 ± 7** mg/dL
percentage the carmine red dye front travelled in the small intestine (small intestine transit): statistically significant increase
